The subject of the series is Caco-2 cell-derived CMs. In kind it is in vitro ADME, human. The settings on record: for increase in CM concentration compared to TXL / CM concentration relative to ω-unmodified BOG prodrug (21a vs 8a, 21b vs 8b): 20 h. How it is done:
[formula] 1 Chylomicron (CM) Isolation and Drug Quantification Methods ^a a (1) Caco-2 cells were grown to confluence. (2) Lipid mix was added to media (final drug concentration of 10 μM), and cells were incubated for 4 h. (3) Cells were washed 3× with PBS. (4) Cells were incubated in fresh media overnight. (5) CM-containing media was collected. (6) Media was combined with a 1.20 g/mL NaCl solution in an ultracentrifugation tube, 500 μL H2O was carefully layered on top, and the mixture was centrifuged at 10,950 RCF for 3 h. (7) The CM-containing upper layer was carefully isolated with a fine-tip pipette. (8) Test drug was then extracted from the CM layer with 70% ACN and quantified using LC-MS/MS.
With the presence of CMs in isolated Caco-2 cell extracts confirmed and reproducibility validated across replicates and different drugs, we were eager to investigate drug incorporation during CM biogenesis in vitro. Accordingly, we added test compound (Figure ) to differentiated Caco-2 cells along with the lipid mix to a final test drug concentration of 10 μM. While 10 μM was selected as a standard concentration for these studies, higher concentrations could allow detection of other compounds with low CM association in future experiments. In either case, CMs secreted by Caco-2 cells can be isolated postincubation, and drug concentrations within CMs can be assessed using highly sensitive LC-MS/MS methodology. Positive (high c Log D) and negative (low c Log D) control compounds were selected to validate this assay. […] Given these properties, we expected CAB to readily package into CMs in vitro. […]. […] This sets the stage for quantitative comparisons of TXL and its functionalized analogs, which are detailed below.
At 14-days postconfluence, Caco-2 cells were incubated in a lipid mixture to induce secretion of CMs. For the lipid solution, oleic acid (50 mg), lecithin (40 mg), and sodium taurocholate (48 mg) were weighted out into an Eppendorf tube, and the volume was brought up to 900 μL with PBS, followed by vigorous vortexing to ensure sample homogeneity. This 100× lipid mixture was then diluted into growth media to achieve the desired concentrations (2 mM oleic acid, 1.36 mM lecithin, 1 mM sodium taurocholate) by adding 500 μL of the lipid mixture to 49.5 mL of media. The lipid-supplemented media was thoroughly mixed and sterilized by filtration using a 250 mL sterile vacuum filter. For the drug-exposed CM experiments, each test compound was dissolved in 2 mM human serum albumin (HAS, Sigma, essentially fatty acid free) in DPBS, then added to 10 mL aliquots of lipid-containing media to achieve a final concentration of 10 μM. Subsequently, lipid-containing media was added to Caco-2 cells and incubated for 4 h at 37 °C. After incubation, cells were washed twice with PBS then incubated for 4, 8, or 20 h at 37 °C in fresh, colorless growth medium. Media was collected into 15 mL falcon tubes and centrifuged at 2000g to remove cell debris. Postcentrifugation, the supernatant was transferred to 50 mL Nalgene Oak Ridge High-Speed PPCO Centrifuge Tubes. Next, to adjust the density for ultracentrifugation, 1.19 g of NaCl in 2 mL of deionized (DI) H2O were added to reach a final volume of 5 mL, corresponding to a density of 1.20 g/mL. This mixture was dissolved by vortexing and balanced by weight. 500 μL of DI H2O was carefully overlaid onto the mixture. Ultracentrifugation was performed for 2 h and 30 min at 10,920 relative centrifugal force (RCF). Immediately after centrifugation, the top 500 μL layer, containing CMs, was carefully collected using a gel-loading pipet tip.
To an aliquot of CM extract was added an equal volume of ACN into 1.5 mL Eppendorf tubes. Tubes were shaken for 1 h at rt then centrifuged at 15,000 RCF to remove debris. The clear supernatant was transferred to a glass vial and concentrated under reduced pressure to yield a dry solid. Sample was then reconstituted in 70% ACN in H2O, filtered and then analyzed. […]

Take `C[C@H](Cn1cnc2c(N)ncnc21)OCP(=O)(O)OCCCOCCCCCCCCCCCCCCCC(F)(F)F` [15a, Ammonium[(1R)-2-(6-aminopurin-9-yl)-1-methyl-ethoxy]methyl-[3-(16,16,16-trifluorohexadecoxy)propoxy]phosphinate]: the “increase in CM concentration compared to TXL” value (“increase in CM concentration” for short) (10 μM) is 2.4 fold.

Take `C[C@H](Cn1cnc2c(N)ncnc21)OCP(=O)(O)OC[C@H](COCCCCCCCCCCCCCCCC(F)(F)F)OCc1ccccc1` [21a, Ammonium[(1R)-2-(6-Aminopurin-9-yl)-1-methyl-ethoxy]methyl-[(2S)-2-benzyloxy-3-(16,16,16-trifluorohexadecoxy)propoxy]phosphinate]: for the setting “10 μM”, the “CM concentration relative to ω-unmodified BOG prodrug (21a vs 8a, 21b vs 8b)” value was “approximately 1.8 fold” and the “increase in CM concentration” value was 3.3 fold.

As to `C[C@H](Cn1cnc2c(N)ncnc21)OCP(=O)(O)OC[C@H](COCCCCCCCCCCCCCCCCCC(F)(F)F)OCc1ccccc1` [21b, Ammonium[(1R)-2-(6-aminopurin-9-yl)-1-methyl-ethoxy]methyl-[(2S)-2-benzyloxy-3-(18,18,18-trifluorooctadecoxy)propoxy]phosphinate], under “10 μM”, the “CM concentration relative to ω-unmodified BOG prodrug (21a vs 8a, 21b vs 8b)” value is given as about 1.6 fold and the “increase in CM concentration” value came out at 3.8 fold.

For `CCCCCCCCCCCCCCCCOCCCOP(=O)(O)CO[C@H](C)Cn1cnc2c(N)ncnc21` [TXL, hexadecyloxypropyl (HDP)-TFV, reference compound], the “detection of compound in CM extract by LC-MS/MS” value (10 μM test drug, Caco-2 cells) was “successfully detected in CM isolates”. For the same molecule, under “8 h, 10 μM”, the “concentration in CMs compared with BOG prodrugs” value is recorded as “significantly greater concentrations in CMs than all BOG substituted prodrugs”.

The values are drawn from PMC12441861, “Next-Generation Lipid Prodrugs Orally Deliver Tenofovir via Enhanced Chylomicron Incorporation” (ACS Pharmacology & Translational Science, 2025).
